In patent US9855243B2, “Topical anti-inflammatory pharmaceutical composition with zileuton cream formulation” (Qurient Co., Ltd., priority 2013, dated 2018):

Legend:
[1] = Physical stability, phase separation checked with the naked eye; assay type: physicochemical; settings: solvent screened in cream composition
Description: This is a test to discover an optimized processing method for obtaining a cream formulation.

[2] = Screening of excipient suitability: zileuton with excipient, stability at 50° C.; assay type: physicochemical; settings: changes of TRS % up to 4 weeks at 50° C.
Description: Suitability of components generally used in cream formulation with respect to zieluton was screened, prior to preparing a zieluton cream formulation. […] That is, the stability of excipient at 50° C. was tested.

| Physical stability of cream made with this solvent [1] | Suitability of excipient with respect to zileuton [2] | SMILES |
| --- | --- | --- |
| bad physical stability |  | CN1CCCC1=O [NMP, N-methyl pyrrolidone] |
|  | suitable | CCCCCCCCCCCCCCCCCCO [stearyl alcohol] |
| bad physical stability |  | OCc1ccccc1 [benzyl alcohol] |
| deteriorates physical stability |  | CCO [ethanol] |
